According to PubChem BioAssay AID1845217 (Molecular Pharmacology Branch, DTP, NCI, 2023):

System: VA-ES-BJ tumor spheroid viability
Assay: Anticancer human tumor VA-ES-BJ cell line growth inhibition;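 note: spheroids exposed to compounds for seven days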;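 for viability, T/C: percent of DMSO vehicle control viability so 100% = untreated growth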
Conditions: spheroids with HUVEC and MSC; for IC50: curve of first compound; for viability, T/C: stronger effect = lower value
Method in brief: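 Single agents and combinations were tested on spheroids built from tumor cells plus HUVEC and hMSC, at half-log dilutions starting at or near clinical Cmax, else 10 microM; final DMSO 0.25% (v/v).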

For `CC(C)n1c(=O)n(C)c2cnc3cc(F)c(-c4ccc(OCCCN5CCCCC5)nc4)cc3c21` + COc1cc2c(cc1O)CCNC21CSC2c3c(OC(C)=O)c(C)c4c(c3C(COC1=O)N1C(O)C3Cc5cc(C)c(OC)c(O)c5C(C21)N3C)OCO4, the IC50 (second compound 30 pM) was 5850 nM, the IC50 (second compound 94.9 pM) was under 31.6 nM and the IC50 (second compound 0.0003 µM) was under 31.6 nM. For the same compound, the IC50 (second compound 0.000949 µM) was under 31.6 nM, the IC50 (second compound 0.003 µM) was under 31.6 nM and the viability, T/C (second compound 30 pM, first compound 0.0316 µM) was 76.2%. The viability, T/C (second compound 30 pM, first compound 0.1 µM) was 76.6%, the viability, T/C (second compound 30 pM, first compound 0.316 µM) was 75.2% and the viability, T/C (second compound 30 pM, first compound 1 µM) was 81%. For the same compound, the viability, T/C (second compound 30 pM, first compound 3.16 µM) was 79.1%, the viability, T/C (second compound 30 pM, first compound 10 µM) was 26% and the viability, T/C (second compound 94.9 pM, first compound 0.0316 µM) was 50.3%. For the same compound, the viability, T/C (second compound 94.9 pM, first compound 0.1 µM) was 45.4%, the viability, T/C (second compound 94.9 pM, first compound 0.316 µM) was 46.6% and the viability, T/C (second compound 94.9 pM, first compound 1 µM) was 54.1%. For the same compound, the viability, T/C (second compound 94.9 pM, first compound 3.16 µM) was 47.8%, the viability, T/C (second compound 94.9 pM, first compound 10 µM) was 28.6% and the viability, T/C (second compound 0.0003 µM, first compound 0.0316 µM) was 25.9%. For the same compound, the viability, T/C (second compound 0.0003 µM, first compound 0.1 µM) was 25.1%, the viability, T/C (second compound 0.0003 µM, first compound 0.316 µM) was 30.5% and the viability, T/C (second compound 0.0003 µM, first compound 1 µM) was 31.5%. For the same compound, the viability, T/C (second compound 0.0003 µM, first compound 3.16 µM) was 19.7%, the viability, T/C (second compound 0.0003 µM, first compound 10 µM) was 13.2% and the viability, T/C (second compound 0.000949 µM, first compound 0.0316 µM) was 1.74%. It also gave a viability, T/C (second compound 0.000949 µM, first compound 0.1 µM) of 1.58%, a viability, T/C (second compound 0.000949 µM, first compound 0.316 µM) of 1.8% and a viability, T/C (second compound 0.000949 µM, first compound 1 µM) of 1.79%. For the same compound, the viability, T/C (second compound 0.000949 µM, first compound 3.16 µM) was 1.02%, the viability, T/C (second compound 0.000949 µM, first compound 10 µM) was 1.02% and the viability, T/C (second compound 0.003 µM, first compound 0.0316 µM) was 1.5%. The viability, T/C (second compound 0.003 µM, first compound 0.1 µM) was 1.42%, the viability, T/C (second compound 0.003 µM, first compound 0.316 µM) was 1.59% and the viability, T/C (second compound 0.003 µM, first compound 1 µM) was 0.72%. For the same compound, the viability, T/C (second compound 0.003 µM, first compound 3.16 µM) was 0.45% and the viability, T/C (second compound 0.003 µM, first compound 10 µM) was 0.56%.
Compound `Cn1ncnc1[C@H]1c2n[nH]c(=O)c3cc(F)cc(c23)N[C@@H]1c1ccc(F)cc1` + Cn1nnc2c(C(N)=O)ncn2c1=O has an IC50 (second compound 1 µM) of 537 nM, an IC50 (second compound 3.16 µM) of 216 nM and an IC50 (second compound 10 µM) of 57.3 nM. It also gave an IC50 (second compound 31.6 µM) of under 9.49 nM, an IC50 (second compound 100 µM) of under 9.49 nM and a viability, T/C (second compound 1 µM, first compound 0.00949 µM) of 97.4%. The viability, T/C (second compound 1 µM, first compound 0.03 µM) was 90.7%, the viability, T/C (second compound 1 µM, first compound 0.0949 µM) was 81.8% and the viability, T/C (second compound 1 µM, first compound 0.3 µM) was 68.7%. The viability, T/C (second compound 1 µM, first compound 0.949 µM) was 33.1%, the viability, T/C (second compound 1 µM, first compound 3 µM) was 7.3% and the viability, T/C (second compound 3.16 µM, first compound 0.00949 µM) was 94.4%. It also gave a viability, T/C (second compound 3.16 µM, first compound 0.03 µM) of 51.4%, a viability, T/C (second compound 3.16 µM, first compound 0.0949 µM) of 68.4% and a viability, T/C (second compound 3.16 µM, first compound 0.3 µM) of 55.3%. The viability, T/C (second compound 3.16 µM, first compound 0.949 µM) was 25.1%, the viability, T/C (second compound 3.16 µM, first compound 3 µM) was 7.36% and the viability, T/C (second compound 10 µM, first compound 0.00949 µM) was 72.3%. For the same compound, the viability, T/C (second compound 10 µM, first compound 0.03 µM) was 58.8%, the viability, T/C (second compound 10 µM, first compound 0.0949 µM) was 42.8% and the viability, T/C (second compound 10 µM, first compound 0.3 µM) was 26.3%. It also gave a viability, T/C (second compound 10 µM, first compound 0.949 µM) of 10.4%, a viability, T/C (second compound 10 µM, first compound 3 µM) of 7.26% and a viability, T/C (second compound 31.6 µM, first compound 0.00949 µM) of 33%. For the same compound, the viability, T/C (second compound 31.6 µM, first compound 0.03 µM) was 20.1%, the viability, T/C (second compound 31.6 µM, first compound 0.0949 µM) was 13.4% and the viability, T/C (second compound 31.6 µM, first compound 0.3 µM) was 10.1%. It also gave a viability, T/C (second compound 31.6 µM, first compound 0.949 µM) of 7.36%, a viability, T/C (second compound 31.6 µM, first compound 3 µM) of 5.8% and a viability, T/C (second compound 100 µM, first compound 0.00949 µM) of 12.1%. The viability, T/C (second compound 100 µM, first compound 0.03 µM) was 7.76%, the viability, T/C (second compound 100 µM, first compound 0.0949 µM) was 7.62% and the viability, T/C (second compound 100 µM, first compound 0.3 µM) was 7.16%. It also gave a viability, T/C (second compound 100 µM, first compound 0.949 µM) of 6.55% and a viability, T/C (second compound 100 µM, first compound 3 µM) of 5.96%.
